The source of these data is ChEMBL document CHEMBL1201862, “PubChem BioAssay data set” (2004).

Some test systems named below: SF-539; LOX IMVI; SR; HCT-116; SK-MEL-2; M14; A549; CAKI-1; MCF7; UACC-62; UO-31; EKVX; 786-0; SK-MEL-28; OVCAR-8; Malme-3M; MDA-MB-231; NCI/ADR-RES; MDA-N; T47D.
Common to all, as to assay: DTP human tumour cell line panel, 48 h

The structures appear in SMILES notation.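 Step 1: Grow cells in 96-well plates. Step 2: Expose to compound for 48 hours at 5 concentrations. Step 3: Interpolate endpoints linearly; if unreached, use highest concentration. The concentration for 50% growth inhibition is given as GI50.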 The source made the active and inactive calls. Rule as the data show it: active = GI50 up to about 1.1 µM and inactive = higher.

The GI50 is the concentration that inhibits growth by half. As for `COC(=O)/C=C1\CCCN1CCc1cc2c(cc1CC#N)OCO2`, the GI50 in the experiment on SF-539 was 46.8 µM (inactive); in the experiment on LOX IMVI it was > 100 µM (inactive); in the experiment on SR, 16.5 µM (inactive); with HCT-116, 41.2 µM (inactive); in the experiment with SK-MEL-2, 38.4 µM (inactive); in the experiment with M14, 71.1 µM (inactive). The GI50 with A549 was > 100 µM (inactive); in the experiment on CAKI-1, > 100 µM (inactive); with MCF7, 32.9 µM (inactive); in the experiment on UACC-62, 31.4 µM (inactive); in the experiment with UO-31, 23.8 µM (inactive); in the experiment with EKVX, 58.9 µM (inactive). Moreover, the GI50 was 52.7 µM (inactive) in the experiment on 786-0; 84.1 µM (inactive) with SK-MEL-28; > 100 µM (inactive) with OVCAR-8; > 100 µM (inactive) with Malme-3M; 47.9 µM (inactive) in the experiment on MDA-MB-231; 69.8 µM (inactive) in the experiment on NCI/ADR-RES. For the same compound, the values for the GI50 with MDA-N and with T47D were 18.3 µM (inactive) and 38.7 µM (inactive), respectively.
On to `O=C(O)CC(Nc1ccccc1)C(=O)O` (stereo not given), for which the GI50 in the experiment with SF-539, with LOX IMVI, in the experiment on SR, with HCT-116, in the experiment with SK-MEL-2 and in the experiment with M14 was > 100 µM (inactive) in each case. Also, the GI50 with A549, with CAKI-1, in the experiment on MCF7, in the experiment on UACC-62, in the experiment on UO-31 and in the experiment on EKVX was > 100 µM (inactive) in each case. The GI50 in the experiment with 786-0, in the experiment with SK-MEL-28, with OVCAR-8, in the experiment on Malme-3M, in the experiment on MDA-MB-231 and with NCI/ADR-RES was > 100 µM (inactive) throughout. The GI50 in the experiment with MDA-N and in the experiment with T47D was > 100 µM (inactive) throughout.
Regarding `C=C1c2nc3ccccc3n2C=C(c2ccc(C)cc2)N1c1ccccc1`, the GI50 was 2.44 µM (inactive) in the experiment on SF-539; 5.24 µM (inactive) in the experiment with LOX IMVI; 0.445 µM (active) with SR; 2.9 µM (inactive) in the experiment on HCT-116; 4.49 µM (inactive) with SK-MEL-2; 3.12 µM (inactive) in the experiment on M14. Moreover, the GI50 is 5.55 µM (inactive) with A549; 20.5 µM (inactive) in the experiment on CAKI-1; 2.47 µM (inactive) with MCF7; 2.86 µM (inactive) with UACC-62; 9.62 µM (inactive) in the experiment with UO-31; 2.9 µM (inactive) in the experiment on EKVX. For the same compound, the GI50 is 3.48 µM (inactive) in the experiment on 786-0; 5.58 µM (inactive) with SK-MEL-28; 5.14 µM (inactive) in the experiment with OVCAR-8; 2.62 µM (inactive) with Malme-3M; 4.92 µM (inactive) in the experiment with MDA-MB-231; 1.79 µM (inactive) in the experiment with NCI/ADR-RES. Besides, the GI50 in the experiment on MDA-N is 0.508 µM (active); in the experiment on T47D, 3.24 µM (inactive).
As to `COC(=O)C1(C)CCc2c(ccc3ccccc23)C1=O` (stereo not given), the GI50 was 86.7 µM (inactive) with SF-539; 36.1 µM (inactive) in the experiment with LOX IMVI; 39.4 µM (inactive) with SR; 33.7 µM (inactive) with HCT-116; 26.8 µM (inactive) with SK-MEL-2; 29.9 µM (inactive) with M14. The GI50 is 39.3 µM (inactive) in the experiment with A549; 16.1 µM (inactive) in the experiment on CAKI-1; 30.6 µM (inactive) in the experiment with MCF7; 32.4 µM (inactive) in the experiment with UACC-62; 33.3 µM (inactive) in the experiment on UO-31; 31.8 µM (inactive) with EKVX. Besides, the GI50 was 65 µM (inactive) with 786-0; 64.7 µM (inactive) in the experiment on SK-MEL-28; 40.1 µM (inactive) in the experiment on OVCAR-8; 27.8 µM (inactive) in the experiment on Malme-3M; 49.1 µM (inactive) in the experiment on MDA-MB-231; 34.8 µM (inactive) in the experiment with NCI/ADR-RES. The GI50 in the experiment on MDA-N was 27 µM (inactive); with T47D, 24.5 µM (inactive).
Take `CCCCOc1ccc(S(=O)(=O)/N=C(\NN)Nc2ccc(Cl)cc2)cc1`: the GI50 in the experiment on SF-539 is 17.7 µM (inactive); in the experiment with LOX IMVI, 19.8 µM (inactive); with SR, 21.2 µM (inactive); in the experiment with HCT-116 it was 20 µM (inactive); in the experiment on SK-MEL-2, > 100 µM (inactive); with M14, 24.2 µM (inactive). Besides, the GI50 with A549 was 17.8 µM (inactive); in the experiment with CAKI-1, 21.5 µM (inactive); with MCF7 it was 32.1 µM (inactive); in the experiment with UACC-62, > 100 µM (inactive); in the experiment on UO-31, 18.2 µM (inactive); in the experiment on EKVX, 45.4 µM (inactive). Besides, the GI50 with 786-0 was 17.1 µM (inactive); with SK-MEL-28, 43.7 µM (inactive); with OVCAR-8, 19 µM (inactive); in the experiment on Malme-3M it was 26.9 µM (inactive); in the experiment with MDA-MB-231, 20.2 µM (inactive); with NCI/ADR-RES it was 24.5 µM (inactive). For the same compound, the GI50 in the experiment on MDA-N is 32.3 µM (inactive); in the experiment with T47D, 16.2 µM (inactive).
Regarding `Cc1ccc(/N=N/c2c(C)nn(C(=O)CC(=O)Nc3ccc(Cl)cc3)c2C)cc1C`, the GI50 in the experiment on SF-539 is 26 µM (inactive); in the experiment on LOX IMVI, 96.8 µM (inactive); in the experiment with SR, 18.8 µM (inactive); in the experiment with HCT-116, 49.2 µM (inactive); in the experiment on SK-MEL-2, 77.8 µM (inactive); in the experiment on M14, > 100 µM (inactive). The GI50 was > 100 µM (inactive) in the experiment on A549; > 100 µM (inactive) in the experiment with CAKI-1; > 100 µM (inactive) in the experiment on MCF7; 79.4 µM (inactive) with UACC-62; 37.5 µM (inactive) in the experiment on UO-31; 28.2 µM (inactive) in the experiment on EKVX. For the same compound, the GI50 in the experiment with 786-0 is 53 µM (inactive); with SK-MEL-28, > 100 µM (inactive); in the experiment on OVCAR-8, 32.9 µM (inactive); in the experiment on Malme-3M it was 85.5 µM (inactive); in the experiment on MDA-MB-231, 24.3 µM (inactive); in the experiment with NCI/ADR-RES it was > 100 µM (inactive). For the same compound, the GI50 in the experiment on MDA-N and in the experiment with T47D was > 100 µM (inactive) in each case.
